Assay results from publication PMC8348110, “A Novel Peptide Derived from the Transmembrane Domain of Romo1 Is a Promising Candidate for Sepsis Treatment and Multidrug-Resistant Bacteria” (International Journal of Molecular Sciences, 2021).
≈ marks a conversion by molar mass, not a printed value. Residues, ends and D or L forms follow the SMILES beside them.

Assays:
human erythrocytes = assay: Hemolysis assay; assay type: cell-based; details: 2% erythrocytes in PBS, 1 h 37 °C, absorbance 550 nm; up to / at 256 µg/mL
Experimental: For the hemolytic assay, mouse and human whole blood was diluted with PBS (pH 7.4) and centrifuged for 10 min at 500× g. After removing the supernatant and rinsing the pellet three times with PBS, we resuspended the erythrocytes in PBS at 2% volume. The blood solution was added to the solution of peptides with two-fold serial dilution on a 96-well plate. After incubation for an hour at 37 °C, the plate was centrifuged at 2500× g for 10 min, and the absorbance of the supernatant was measured at 550 nm. The PBS-treated sample was the negative control, and the 0.1% Triton X-100–treated sample was the positive control. To measure white blood cell toxicity, mouse and human PBMCs were freshly isolated as previously described, and 70% ethanol (positive control) or AMPR-22 was administered using two-fold diluted concentrations (0 to 256 μg/mL) for 30 min. To measure cell death, a LIVE/DEAD® fixable green dead cell stain kit (Thermo Fisher Scientific, Waltham, MS, USA) was used following the manufacturer′s instructions, and flow cytometry was performed using a FACS Canto II (BD Biosciences, CA, USA). The toxicity of AMPR-22 was compared with negative (PBS-treated) and positive controls, and the data were analyzed using FlowJo software (Tree Star, OR, USA).

[1] = system: Staphylococcus aureus ATCC 29213; assay type: cell-based; details: ATCC 29213, 1 h, pH 7.4
Experimental: (§1) The minimum bactericidal concentration (MBC) was determined as previously described with minor modifications. Briefly, bacteria were cultured in the mid-log phase and diluted to 5 × 10^5 colony-forming unit (CFU)/mL in 10 mM sodium phosphate buffer (pH 7.4) with a 1% volume of TS broth. They were incubated for 1 h with various peptides which were two-fold diluted serially from 64 μg/mL to 0 μg/mL concentrations in a 96-well plate. The samples were inoculated TS agar plate and incubated overnight at 37 °C. The value of MBC was determined at the lowest concentrations at which no colonies were identified.
(§2) We used the CFU counting method to measure antibacterial activity, with all bacteria cultured to the mid-log phase in an appropriate broth medium. Bacterial CFUs were counted after overnight culture at 37 °C on TS or LB agar plates. The MBC value and antibacterial activity in blood components were determined as previously described. Mouse and human whole blood were collected and diluted with PBS (pH 7.4) to measure the ex vivo antibacterial activity of AMPR-22. For that test, AMPR-22 (10 μg) was added to each whole blood solution and incubated at 37 °C with shaking at 200 rpm. At each time point, it was incubated with bacteria (1 × 10^3 CFU) for 30 min. Each sample was inoculated on an LB agar plate, and CFU counting was performed. To measure the in vivo activity of AMPR-22, 1 × 10^8 CFU of bacteria were injected into BALB/c mice, and an hour later, 10 mg/kg of the test peptides were injected. Blood samples were collected by tail cut, serially diluted with PBS (pH 7.4), and inoculated on LB-agar plates, followed by CFU counting. To estimate the functional half-life of AMPR-22, 40 mg/kg of each tested peptide were injected into mice. Whole blood sampling was performed by cardiac puncture, and the plasma was isolated by centrifugation (2000× g, 15 min). The isolated plasma was incubated with bacteria (1 × 10^3 CFU) for an hour, and then the CFU counting method was performed.

[2] = system: Pseudomonas aeruginosa ATCC 27853; assay type: cell-based; details: ATCC 27853, 1 h
Experimental: as §1, §2

[3] = system: Methicillin-resistant S. aureus (MRSA) ATCC 33591; assay type: cell-based, Staphylococcus aureus; details: ATCC 33591, 1 h
Experimental: as §1, §2

[4] = system: Carbapenem-resistant P. aeruginosa (CRPA), clinical isolate; assay type: cell-based, Pseudomonas aeruginosa; details: 1 h
From the text: Acinetobacter baumannii (ATCC 19606), B. subtilis (ATCC 6633), E. aerogenes (ATCC 13048), E. coli (ATCC 25922), E. faecalis (ATCC 19433), E. faecium (ATCC 19434), K. pneumoniae (ATCC 13883), P. aeruginosa (ATCC 27853), S. aureus (ATCC 29213), S. sindenensis (ATCC 23963), and MRSA (ATCC 33591) were purchased from the American Type Culture Collection (ATCC; Gaithersburg, MD, USA). Streptococcus pneumoniae (NCCP 14585), vancomycin-resistant E. faecium (NCCP 11522), and vancomycin-resistant S. aureus (NCCP 15872) were purchased from the National Culture Collection for Pathogens (NCCP; Cheongju, Korea). The isolation and use of carbapenem-resistant bacterial strains from a patient were approved (2015AN0129) by the Institutional Review Board (IRB) of Korea University Hospital. CRPA, CRKP, and CRAB were clinically isolated in Korea University Hospital (Seoul, Korea). CRPA was confirmed to be resistant to piperacillin, piperacillin-tazobactam, ceftazidime, imipenem, meropenem, gentamicin, amikacin, and ciprofloxacin. CRAB was confirmed to be resistant to piperacillin, piperacillin-tazobactam, cefepime, ceftazidime, imipenem, meropenem, gentamicin, amikacin, and ciprofloxacin. CRKP was confirmed to be resistant to piperacillin-tazobactam, cefepime, ceftazidime, imipenem, gentamicin, and ciprofloxacin. All strains were stored at –80 °C in 50% glycerol and 50% Luria-Bertani (LB) or tryptic soy (TS) broth, grown on LB or TS plates, and aerated at 37 °C.
as §1, §2

P. aeruginosa = assay: Serial passage assay (acquisition of drug resistance); assay type: cell-based, Pseudomonas aeruginosa; details: sub-MBC treatment
Experimental: For the PI uptake assay, bacteria were cultured in the mid-log phase and diluted to 5 × 10^5 CFU/mL in PBS (pH 7.4). The peptides were treated with 40 μg/mL for 10 min, and then 10 μM PI was added and incubated for 20 min. The PI fluorescence was measured with a flow cytometric assay using a FACS Canto II (BD Biosciences, CA, USA), and the data were analyzed using FlowJo software (Tree Star, Ashland, OR, USA). NPN uptake and a membrane depolarization assay were performed as previously described, with some changes. Briefly, 1 × 10^4 CFU/mL of bacteria were place on a 96-well plate, and then 10 μM NPN or 4 μM DiSC3(5) was added, and AMPR-22 was administered. The fluorescence signal was measured for 10 min using a SpectraMax Plus 384 microplate reader (Molecular Devices, San Jose, CA, USA). For the NPN uptake assay, AMPR-22 was administered 3 min after the start of the fluorescence measurements. The ATP leakage assay was performed using a BacTiter-glo™ kit (Promega, Madison, WI, USA) and the manufacturer’s instructions with minor modifications. […] The luminescence signal was measured using a SpectraMax Plus 384 microplate reader (Molecular Devices, San Jose, CA, USA). […] Sub-MBC concentrations of peptide were administered to 1 mL of cultured cells, and then the MBC values were determined for every passage. […]

| Compound | Hemolytic activity against human erythrocytes (human erythrocytes) | MBC Value, S. aureus [1] [µg/mL] | MBC Value, P. aeruginosa [2] [µg/mL] | MBC Value, MRSA [3] [µg/mL] | MBC Value, CRPA [4] [µg/mL] | Passages after which resistance developed (P. aeruginosa) | Increase of the modified MBC value after 30 passages (P. aeruginosa; 30 passages) [fold] |
| --- | --- | --- | --- | --- | --- | --- | --- |
| CC[C@H](C)[C@H](NC(=O)CNC(=O)[C@H](CCSC)NC(=O)CNC(=O)[C@@H](NC(=O)[C@H](C)NC(=O)[C@H](CCSC)NC(=O)[C@H](Cc1ccccc1)NC(=O)[C@@H](NC(=O)CNC(=O)[C@H](Cc1ccccc1)NC(=O)[C@@H](NC(=O)CNC(=O)CNC(=O)[C@H](CO)NC(=O)[C@H](CCC(N)=O)NC(=O)[C@H](CCSC)NC(=O)[C@H](CCSC)NC(=O)[C@@H](NC(=O)[C@@H](N)CCCCN)[C@@H](C)O)[C@@H](C)O)[C@@H](C)O)[C@@H](C)CC)C(=O)N[C@@H](CCCNC(=N)N)C(=O)O [AMPR-11] (H-KTMMQSGGTFGTFMAIGMGIR-OH) | low hemolytic activity |  |  |  |  |  |  |
| CC[C@H](C)[C@H](NC(=O)[C@H](C)NC(=O)[C@H](CCSC)NC(=O)[C@H](Cc1ccccc1)NC(=O)[C@@H](NC(=O)CNC(=O)[C@H](Cc1ccccc1)NC(=O)[C@H](CCCCN)NC(=O)CNC(=O)CNC(=O)[C@H](CCCCN)NC(=O)[C@H](CCCCN)NC(=O)[C@H](CCSC)NC(=O)[C@H](CCSC)NC(=O)[C@H](CCCCN)NC(=O)[C@@H](N)CCCCN)[C@@H](C)O)C(=O)NCC(=O)N[C@@H](CCSC)C(=O)N[C@H](C(=O)N[C@@H](CCCNC(=N)N)C(=O)O)[C@@H](C)CC [d76G] (H-KKMMKKGGKFGTFMAIGMIR-OH) |  | 4 (≈ 1.77 µM) | 4 (≈ 1.77 µM) | 4 (≈ 1.77 µM) | 4 (≈ 1.77 µM) |  |  |
| CC[C@H](C)[C@H](NC(=O)[C@H](C)NC(=O)[C@H](CCSC)NC(=O)[C@H](Cc1ccccc1)NC(=O)[C@@H](NC(=O)CNC(=O)[C@H](Cc1ccccc1)NC(=O)[C@H](CCCCN)NC(=O)CNC(=O)CNC(=O)[C@H](CCCCN)NC(=O)[C@H](CCCCN)NC(=O)[C@H](CCSC)NC(=O)[C@H](CCSC)NC(=O)[C@H](CCCCN)NC(=O)[C@@H](N)CCCCN)[C@@H](C)O)C(=O)NCC(=O)N[C@@H](CCSC)C(=O)NCC(=O)N[C@@H](CCCNC(=N)N)C(=O)O [d77I] (H-KKMMKKGGKFGTFMAIGMGR-OH) |  | 8 (≈ 3.63 µM) | 4 (≈ 1.81 µM) | 4 (≈ 1.81 µM) | 8 (≈ 3.63 µM) |  |  |
| CC[C@H](C)[C@H](NC(=O)CNC(=O)[C@H](CCSC)NC(=O)CNC(=O)[C@@H](NC(=O)[C@H](C)NC(=O)[C@H](CCSC)NC(=O)[C@H](Cc1ccccc1)NC(=O)[C@@H](NC(=O)CNC(=O)[C@H](Cc1ccccc1)NC(=O)[C@H](CCCCN)NC(=O)CNC(=O)CNC(=O)[C@H](CCCCN)NC(=O)[C@H](CCCCN)NC(=O)[C@H](CCSC)NC(=O)[C@H](CCSC)NC(=O)[C@H](CCCCN)NC(=O)[C@@H](N)CCCCN)[C@@H](C)O)[C@@H](C)CC)C(=O)O [d78R] (H-KKMMKKGGKFGTFMAIGMGI-OH) |  | 16 (≈ 7.4 µM) | 4 (≈ 1.85 µM) | 4 (≈ 1.85 µM) | 16 (≈ 7.4 µM) |  |  |
| CNC(C)C1CCC(N)C(OC2C(N)CC(N)C(OC3OCC(C)(O)C(NC)C3O)C2O)O1 (stereo not drawn) [gentamicin] |  |  |  |  |  | nine | 64 |
